Experimental data from US4145419A, “Novel imidazobenzoxazines” (Roussel Uclaf, priority 1976, dated 1979).
Like-named read-outs stand apart in the source and are kept apart here.

Test system: passive cutaneous anaphylaxis
Assay: Passive Cutaneous Anaphylaxis (PCA) in Rats
Type: in vivo
Settings: Rattus norvegicus, dosed immediately prior to intravenous antigen challenge, read-out: ED50 (dose of drug giving 50% inhibition)
Source text: Passive Cutaneous Anaphylaxis (PCA) in Rats
Cutaneous anaphylaxis can be induced in rats by intradermal (ID) sensitization with antiserum followed three days later by systemic challenge with antigen. Evans blue dye injected with the antigen is used as a marker to assess the severity of the local response. Anti-allergic drugs inhibit this reaction. This method has been described by OVARY (1962) "Passive Cutaneous Anaphylaxis in Allergology" Page 358-367 Ed. Brown: Pergamon Press:-male rats weighing 180-220 grams are used in groups of seven.
Preparation of Antigen for Sensitization (Alum precipitated ovalbumen)
1. Wash 120 grams of Al(OH)3 gel in 140 ml of saline (use of a macerater facilitates mixing).
2. Centrifuge at 3,000 r.p.m. for about 10 minutes.
3. Resuspend the precipitate with 300 ml of albumen egg powder (1.3 mg/ml) in saline and allow to stand for 30 minutes.
4. Centrifuge at 3,000 r.p.m. for 10 minutes.
5. Weigh the wet precipitate and to each gram weight add 1 ml of saline. Store in refrigerator (Quantity sufficient for 60 rats for a 3 day sensitization program).
Preparation of Antiserum (anti-ovalbumen)
1 ml of the alum precipitated ovalbumen was injected subcutaneously into rats weighing 180-200 grams on days 0,2,4. The rats were bled on day 14 either by cardiac puncture or via the dorsal abdominal aorta. Equal quantities of serum from each animal were pooled and thoroughly mixed and 2 ml aliquots were stored at -20° C. in plastic tubes.
The antiserum for sensitization was diluted so that an ID injection of 0.1 ml into control animals would give an average score of a single spot of between 2.0-3.5 using a 4 point scoring system.
(A) SENSITIZATION: The rats were anaesthetized with Nembutal (40-60 mg/kg i.p.) and were then sensitized by four ID injections (0.1 ml each) on their shaved backs. The animals were then left for a period of three days to develop sensitization.
(B) CHALLENGE: The sensitized rats were dosed orally or intraveneously with the drug immediately prior to intraveneous challage via the superficial penile vein with 1 ml of an antigen/Evans blue mixture (1 mg albumen egg powder in 0.5 ml saline plus 0.5 ml of 1% Evans blue). The injection were speeded up by using an automatic 1 ml self-filling glass syringe. The "challenged" rats were killed after 30 minutes, (usually pithed) and their skin on the dorsal surface was removed. The degree and area of blueing, proportional to the anaphylactic reaction was assessed on a four point scoring system.
1. Total scores for sites 1,2,3 and 4 = X
2. mean value of X for each group = X
3. x t = X for test group X c = X for control group
4. % inhibition = X c - X t/X c X 100/1
5. ed50 = dose of drug giving 50% inhibition.
ED50 values for the compounds tested in the passive cutaneous anaphylaxis screen (in rats) are as follows: […]

Compound	ED50 (po, P.O.)	ED50 (I.V.)
O=C(O)C(=O)Nc1ccc2c(c1)-n1cc(C(=O)O)nc1CO2 [Example 12, 8-oxalamino-4H-imidazo-[2,1-c][1,4]-benzoxazine-2-carboxylic acid]	3.85 mg/kg	
O=C(O)c1cn2c(n1)COc1ccc([N+](=O)[O-])cc1-2 [Example 10, 8-nitro-4H-imidazo-[2,1-c][1,4]-benzoxazine-2-carboxylic acid]		2.2 mg/kg
O=C(OCCN1CCOCC1)c1cn2c(n1)COc1ccccc1-2 [Example 5, 2-morpholinoethyl 4H-imidazo-[2,1-c][1,4]-benzoxazine-2-carboxylate]	10.7 mg/kg	1.75 mg/kg
O=C(O)c1cn2c(n1)COc1ccccc1-2 [Example 2, 4H-imidazo-[2,1-c][1,4]-benzoxazine-2-carboxylic acid]	2.88 mg/kg	1.95 mg/kg
COC(=O)c1cn2c(n1)COc1ccccc1-2 [Example 1, methyl 4H-imidazo-[2,1-c][1,4]-benzoxazine-2-carboxylate]	10.8 mg/kg	
CC(=O)Nc1ccc2c(c1)-n1cc(C(=O)O)nc1CO2 [Example 11, 8-acetamido-4H-imidazo-[2,1-c][1,4]-benzoxazine-2-carboxylic acid]	> 10 mg/kg	0.073 mg/kg
